In patent US9234000B2, “Benzylamine derivatives as inhibitors of plasma kallikrein” (KalVista Pharmaceuticals Limited, priority 2011, dated 2016):
Values after ≈ are worked out from the molar mass of the structure shown. Where two headings read alike, the source gives them in different places.

What was measured:
[1] = Determination of thermodynamic solubility in phosphate buffer; assay type: physicochemical; conditions: ammonium phosphate buffer pH7.4, 290 mOsm, 37° C., nominal 1 mg/mL; for solubility at 1 h: pH 7.4, aqueous buffer, thermodynamic from solid, read-out: Solubility in PO4 buffer
Method: Determination of Thermodynamic Solubility in Phosphate Buffer
The thermodynamic solubility of compound was determined in Ammonium Phosphate Buffer (pH7.4, 290 mOsm). Compounds were made up at a nominal concentration of 1 mg/mL, vortexed then placed on a shaker for 1 h, 37° C. at approximately 950 rpm. Following incubation samples were transferred to eppendorf tubes and centrifuged at 15,000 g (r.c.f.) for 10 minutes at 37° C. The concentration of compound in the supernatant was determined by LC-MS/MS analysis using a calibration line prepared from a DMSO stock.

[2] = physchem; conditions: pH 7, aqueous buffer, kinetic from dmso stock
Method: Determination of the Kinetic Solubility in Phosphate Buffer
After shaking for approximately 30 seconds the reduction in light transmission of these samples, at 650 nm, was measured (Molecular Devices Spectromax UV/visible spectrophotometer). A second measurement was taken at approximately 30 seconds later.

[3] = target: Human plasma kallikrein (Homo sapiens (Human), UniProt P03952); assay: Determination of the IC50 for plasma kallikrein; assay type: biochemical; conditions: 37° C., read-out: IC50 (human PKal)
Sequence of Human plasma kallikrein (P03952 391-638): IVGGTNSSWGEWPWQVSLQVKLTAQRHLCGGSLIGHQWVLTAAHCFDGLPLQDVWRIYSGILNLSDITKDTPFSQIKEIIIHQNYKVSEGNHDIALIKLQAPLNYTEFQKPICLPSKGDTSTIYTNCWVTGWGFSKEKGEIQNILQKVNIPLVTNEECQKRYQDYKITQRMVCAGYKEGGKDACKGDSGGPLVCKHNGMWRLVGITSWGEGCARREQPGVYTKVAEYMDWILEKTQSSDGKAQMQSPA
Sequence of Human plasma kallikrein (P03952 20-390 partner): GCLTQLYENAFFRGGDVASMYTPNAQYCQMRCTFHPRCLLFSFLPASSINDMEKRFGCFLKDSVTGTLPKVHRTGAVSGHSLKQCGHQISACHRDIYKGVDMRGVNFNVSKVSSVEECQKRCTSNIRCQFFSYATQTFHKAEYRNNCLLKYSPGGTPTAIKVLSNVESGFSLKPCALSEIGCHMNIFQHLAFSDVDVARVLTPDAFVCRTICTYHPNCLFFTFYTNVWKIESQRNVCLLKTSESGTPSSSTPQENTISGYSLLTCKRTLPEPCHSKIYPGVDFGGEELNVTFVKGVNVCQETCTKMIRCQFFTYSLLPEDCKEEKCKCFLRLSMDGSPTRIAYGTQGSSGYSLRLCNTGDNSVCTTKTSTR
Procedure, shortened: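 Residual activity (initial rate, absorbance at 410 nm) gave the IC50. Reactions at 37° C combined human plasma kallikrein, substrate H-DPro-Phe-Arg-AFC and a range of inhibitor concentrations.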

[4] = target: Human KLK1 (Homo sapiens (Human), UniProt P06870); assay: Determination of the IC50 for KLK1; assay type: biochemical; conditions: Human KLK1, 37° C., substrate H-DVal-Leu-Arg-AFC; Table 13
Sequence of Human KLK1 (P06870 25-262): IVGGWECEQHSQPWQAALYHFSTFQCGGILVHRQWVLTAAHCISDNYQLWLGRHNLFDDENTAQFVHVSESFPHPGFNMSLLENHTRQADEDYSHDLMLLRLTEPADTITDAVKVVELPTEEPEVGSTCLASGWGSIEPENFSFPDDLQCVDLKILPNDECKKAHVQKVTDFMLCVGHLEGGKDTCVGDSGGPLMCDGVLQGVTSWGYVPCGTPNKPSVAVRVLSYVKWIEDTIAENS
Procedure, shortened: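 hKLK1 + H-DVal-Leu-Arg-AFC, 37° C, varied cpd conc. Initial rate by A410 change → residual activity → IC50.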

[5] = fluorogenic substrate H-DPro-Phe-Arg-AFC

solubility at 1 h [1] | solubility [2] | IC50 [3, 5] | IC50 [4] | IC50 ([3]; substrate H-DPro-Phe-Arg-AFC) | solubility in PO4 buffer ([1]; 1 h) | SMILES
1.5 µg/mL (≈ 2.45 µM) | 36 µM (≈ 22.1 µg/mL) | 0.031 µM |  |  |  | CCOc1ccc(C[C@@H](NC(=O)c2ccc(Cl)cc2)C(=O)N[C@@H](Cc2ccccc2)C(=O)NCc2ccc(CN)cc2)cc1 [Example 55, N-[(R)-1-[(S)-1-(4-Aminomethyl-benzylcarbamoyl)-2-phenyl-ethylcarbamoyl]-2-(4-ethoxy-phenyl)-ethyl]-4-chloro-benzamide]
0.19 µg/mL (≈ 0.299 µM) |  |  | > 10 µM | 0.01 µM |  | CCOc1ccc(C[C@@H](NC(=O)c2ccccc2)C(=O)N[C@@H](Cc2csc3ccccc23)C(=O)NCc2ccc(CN)cc2)cc1 [Example 153, N-[(R)-1-[(S)-1-(4-Aminomethyl-benzylcarbamoyl)-2-benzo[b]thiophen-3-yl-ethylcarbamoyl]-2-(4-ethoxy-phenyl)-ethyl]-benzamide]
122 µg/mL (≈ 209 µM) |  |  | > 10 µM | 0.023 µM |  | CCOc1ccc(C[C@@H](NC(=O)c2ccccc2)C(=O)N[C@@H](Cc2cscn2)C(=O)NCc2ccc(CN)cc2)cc1 [Example 152, N-[(R)-1-[(S)-1-(4-Aminomethyl-benzylcarbamoyl)-2-thiazol-4-yl-ethylcarbamoyl]-2-(4-ethoxy-phenyl)-ethyl]-benzamide]
0.2 µg/mL (≈ 0.326 µM) |  |  | > 10 µM | 0.09 µM |  | CCOc1ccc(C[C@@H](NC(=O)c2cccc(Cl)c2)C(=O)N[C@@H](Cc2ccccc2)C(=O)NCc2ccc(CN)cc2)cc1 [Example 88, N-[(R)-1-[(S)-1-(4-Aminomethyl-benzylcarbamoyl)-2-phenyl-ethylcarbamoyl]-2-(4-ethoxy-phenyl)-ethyl]-3-chloro-benzamide]
1.54 µg/mL (≈ 2.42 µM) |  |  | > 10 µM | 0.042 µM |  | CCOc1ccc(C[C@@H](NC(=O)c2ccncc2)C(=O)N[C@@H](Cc2csc3ccccc23)C(=O)NCc2ccc(CN)cc2)cc1 [Example 178, N-[(R)-1-[(S)-1-(4-Aminomethyl-benzylcarbamoyl)-2-benzo[b]thiophen-3-yl-ethylcarbamoyl]-2-(4-ethoxy-phenyl)-ethyl]-isonicotinamide]
0.44 µg/mL (≈ 0.718 µM) |  |  | > 10 µM | 0.022 µM |  | CCOc1ccc(C[C@@H](NC(=O)c2ccccc2)C(=O)N[C@@H](Cc2ccccc2)C(=O)NCc2ccc(CN)c(Cl)c2)cc1 [Example 155, N-[(R)-1-[(S)-1-(4-Aminomethyl-3-chloro-benzylcarbamoyl)-2-phenyl-ethylcarbamoyl]-2-(4-ethoxy-phenyl)-ethyl]-benzamide]
3.14 µg/mL (≈ 5.26 µM) |  |  | > 10 µM | 0.021 µM |  | CCOc1ccc(C[C@@H](NC(=O)c2ccccc2)C(=O)N[C@@H](Cc2ccccc2)C(=O)NCc2ccc(CN)c(F)c2)cc1 [Example 154, N-[(R)-1-[(S)-1-(4-Aminomethyl-3-fluoro-benzylcarbamoyl)-2-phenyl-ethylcarbamoyl]-2-(4-ethoxy-phenyl)-ethyl]-benzamide]

Further lines, the molecule ahead of its results:

SMILES | solubility at 1 h [1] | solubility [2] | IC50 [3, 5] | IC50 [4] | IC50 ([3]; substrate H-DPro-Phe-Arg-AFC) | solubility in PO4 buffer ([1]; 1 h)
CCOc1ccc(C[C@@H](NC(=O)c2ccc(C(F)(F)F)cc2)C(=O)N[C@@H](Cc2ccccc2)C(=O)NCc2ccc(CN)cc2)cc1 [Example 56, N-[(R)-1-[(S)-1-(4-Aminomethyl-benzylcarbamoyl)-2-phenyl-ethylcarbamoyl]-2-(4-ethoxy-phenyl)-ethyl]-4-trifluoromethyl-benzamide] | 0.9 µg/mL (≈ 1.39 µM) | 36 µM (≈ 23.3 µg/mL) | 0.5 µM |  |  | 
CCOc1ccc(C[C@@H](NC(=O)c2ccc(Cl)cc2Cl)C(=O)N[C@@H](Cc2ccccc2)C(=O)NCc2ccc(CN)cc2)cc1 [Example 58, N-[(R)-1-[(S)-1-(4-Aminomethyl-benzylcarbamoyl)-2-phenyl-ethylcarbamoyl]-2-(4-ethoxy-phenyl)-ethyl]-2,4-dichloro-benzamide] | 4.1 µg/mL (≈ 6.33 µM) | 36 µM (≈ 23.3 µg/mL) | 0.17 µM |  |  | 
CCOc1ccc(C[C@@H](NC(=O)c2cccc3ccccc23)C(=O)N[C@@H](Cc2ccccc2)C(=O)NCc2ccc(CN)cc2)cc1 [Example 54, Naphthalene-1-carboxylic acid [(R)-1-[(S)-1-(4-aminomethyl-benzylcarbamoyl)-2-phenyl-ethylcarbamoyl]-2-(4-ethoxy-phenyl)-ethyl]-amide] | 0.8 µg/mL (≈ 1.27 µM) | 12 µM (≈ 7.55 µg/mL) | 0.083 µM |  |  | 
CCOc1ccc(C[C@@H](NC(=O)c2cccnc2)C(=O)N[C@@H](Cc2ccccc2)C(=O)NCc2ccc(CN)cc2)cc1 [Example 70, N-[(R)-1-[(S)-1-(4-Aminomethyl-benzylcarbamoyl)-2-phenyl-ethylcarbamoyl]-2-(4-ethoxy-phenyl)-ethyl]-nicotinamide] | 11.5 µg/mL (≈ 19.9 µM) |  |  | 7.5 µM | 0.126 µM | 
CCOc1ccc(C[C@@H](NC(=O)c2ccc(F)c(F)c2)C(=O)N[C@@H](Cc2ccccc2)C(=O)NCc2ccc(CN)cc2)cc1 [Example 59, N-[(R)-1-[(S)-1-(4-Aminomethyl-benzylcarbamoyl)-2-phenyl-ethylcarbamoyl]-2-(4-ethoxy-phenyl)-ethyl]-3,4-difluoro-benzamide] | 7.7 µg/mL (≈ 12.5 µM) | 36 µM (≈ 22.1 µg/mL) | 0.078 µM |  |  | 
CCOc1ccc(C[C@@H](NC(=O)c2sccc2C)C(=O)N[C@@H](Cc2cccnc2)C(=O)NCc2ccc(CN)cc2)cc1 [Example 181, 3-Methyl-thiophene-2-carboxylic acid [(R)-1-[(S)-1-(4-aminomethyl-benzylcarbamoyl)-2-pyridin-3-yl-ethylcarbamoyl]-2-(4-ethoxy-phenyl)-ethyl]-amide] | 61.6 µg/mL (≈ 103 µM) |  |  | > 10 µM | 0.01 µM | 
CCOc1ccc(C[C@@H](NC(=O)c2cccs2)C(=O)N[C@@H](Cc2ccccc2)C(=O)NCc2ccc(CN)cc2)cc1 [Example 73, Thiophene-2-carboxylic acid [(R)-1-[(S)-1-(4-aminomethyl-benzylcarbamoyl)-2-phenyl-ethylcarbamoyl]-2-(4-ethoxy-phenyl)-ethyl]-amide] | 5.1 µg/mL (≈ 8.72 µM) |  |  | 9.3 µM | 0.025 µM | 
CCOc1ccc(C[C@@H](NC(=O)c2ccccn2)C(=O)N[C@@H](Cc2ccccc2)C(=O)NCc2ccc(CN)c(Cl)c2)cc1 [Example 159, Pyridine-2-carboxylic acid [(R)-1-[(S)-1-(4-aminomethyl-3-chloro-benzylcarbamoyl)-2-phenyl-ethylcarbamoyl]-2-(4-ethoxy-phenyl)-ethyl]-amide] | 1.15 µg/mL (≈ 1.87 µM) |  |  | > 10 µM | 0.015 µM | 
CCOc1ccc(C[C@@H](NC(=O)c2sccc2Cl)C(=O)N[C@@H](Cc2cccnc2)C(=O)NCc2ccc(CN)cc2)cc1 [Example 175, 3-Chloro-thiophene-2-carboxylic acid [(R)-1-[(S)-1-(4-aminomethyl-benzylcarbamoyl)-2-pyridin-3-yl-ethylcarbamoyl]-2-(4-ethoxy-phenyl)-ethyl]-amide] | 23.4 µg/mL (≈ 37.7 µM) |  |  | > 10 µM | 0.003 µM | 
CCOc1ccc(C[C@@H](NC(=O)c2ccccc2)C(=O)N[C@@H](Cc2ccsc2)C(=O)NCc2ccc(CN)cc2)cc1 [Example 151] |  |  |  | > 10 µM | 0.009 µM | 4.31 µg/mL (≈ 7.37 µM)
CCOc1ccc(C[C@@H](NS(=O)(=O)c2ccc(Cl)cc2)C(=O)N[C@@H](Cc2ccccc2)C(=O)NCc2ccc(CN)cc2)cc1 [Example 84, (R)-N-[(S)-1-(4-Aminomethyl-benzylcarbamoyl)-2-phenyl-ethyl]-2-(4-chloro-benzenesulfonylamino)-3-(4-ethoxy-phenyl)-propionamide] | 0.5 µg/mL (≈ 0.77 µM) |  |  | 1.2 µM | 0.219 µM | 
